# Patent US10842783B2, “Avibactam and carbapenems antibacterial agents” (THE JOHNS HOPKINS UNIVERSITY, priority 2017, dated 2020)
# Entries after “also recorded” stand apart in the source; their conditions may differ.
# Test system: M. abscessus ATCC 19977
# Assay: Broth microdilution MIC of carbapenems with and without β-lactamase inhibitors, reference strain
# Type: cell-based, Mycobacterium abscessus
# Conditions: 7H9 broth, avibactam at fixed 4 μg/mL
# Protocol: (§1) All strains were initially grown in 7H9 complete medium composed of Middlebrook 7H9 broth (Difco) supplemented with 0.5% glycerol, 10% oleic acid-albumin-dextrose-catalase and 0.05% Tween-80 at 37° C. with constant shaking. A standard broth microdilution method was used to determine MIC. Briefly, M. abscessus strains were grown as described above and these cultures, at exponential phase (A600 nm˜0.6-0.8), were used to inoculate 10^5 colony forming units (CFU) into each well of microtiter culture plates containing a carbapenem at two fold serial dilutions ranging from 256 to 0.25 μg/mL. An identical setup but with wells containing 4 μg/mL of avibactam was used to assess the effect of this agent on each carbapenem. Carbapenems studied were procured commercially from Sigma-Aldrich and include ertapenem, meropenem, imipenem, doripenem, biapenem, faropenem, tebipenem and panipenem. β-lactamase inhibitors sulbactam, tazobactam and avibactam were also procured from Sigma-Aldrich. In addition, to establish baseline antibacterial susceptibility for each strain we also determined MICs for drugs currently used to treat M. abscessus infections. They are linezolid, cefoxitin, kanamycin, ciprofloxacin, moxifloxacin, amikacin, tigecycline, imipenem, tobramycin, trimethoprim/sulfamethoxazole, and clarithromycin. M. abscessus growth was evaluated by visual inspection of pellets after 3 days of incubation (the exception being clarithromycin for which incubation was extended to 14 days) at 30° C. without shaking per CLSI guidelines. In addition to assessment in 7H9 complete medium, we also used cation adjusted Mueller-Hinton broth for MIC studies for the reference strain M. abscessus ATCC 19977. All experiments were repeated and the final data represent the average of two biological replicates.
# We studied the utility of β-lactamase inhibitors sulbactam, tazobactam, and avibactam in restoring in vitro potencies of carbapenems against M. abscessus using the reference drug-susceptible strain ATCC 19977. We determined MICs of ertapenem, meropenem, imipenem, doripenem, biapenem, faropenem, tebipenem and panipenem alone or in the presence of the aforementioned […] β-lactamase inhibitors.
row,Compound,"Minimum inhibitory concentration, 7H9 + avibactam"
1,"C[C@@H](O)[C@H]1C(=O)N2C(C(=O)O)=C(S[C@@H]3CN[C@H](C(=O)N(C)C)C3)[C@H](C)[C@H]12 [Meropenem, meropenem]",2 to 4 µg/mL
2,"C[C@@H](O)[C@H]1C(=O)N2C(C(=O)O)=C(SCCN=CN)C[C@H]12 [Imipenem, imipenem]",2 to 4 µg/mL

# Same assay, conditions: 7H9 broth, sulbactam at fixed 4 μg/mL
row,Compound,"Minimum inhibitory concentration, 7H9 + sulbactam"
1,"C[C@@H](O)[C@H]1C(=O)N2C(C(=O)O)=C(S[C@@H]3CN[C@H](C(=O)N(C)C)C3)[C@H](C)[C@H]12 [Meropenem, meropenem]",8 to 16 µg/mL
2,"C[C@@H](O)[C@H]1C(=O)N2C(C(=O)O)=C(SCCN=CN)C[C@H]12 [Imipenem, imipenem]",4 to 8 µg/mL

# Same assay, conditions: 7H9 broth, tazobactam at fixed 4 μg/mL
row,Compound,"Minimum inhibitory concentration, 7H9 + tazobactam"
1,"C[C@@H](O)[C@H]1C(=O)N2C(C(=O)O)=C(S[C@@H]3CN[C@H](C(=O)N(C)C)C3)[C@H](C)[C@H]12 [Meropenem, meropenem]",8 to 16 µg/mL
2,"C[C@@H](O)[C@H]1C(=O)N2C(C(=O)O)=C(SCCN=CN)C[C@H]12 [Imipenem, imipenem]",2 to 4 µg/mL

# Same assay, conditions: Mycobacteroides abscessus, ATCC19977, read-out: Minimum inhibitory concentration, 7H9 broth
row,Compound,MIC
1,"CC1(C)[C@H](C(=O)O)N2C(=O)C[C@H]2S1(=O)=O [Sulbactam, sulbactam]",> 64 µg/mL

# Same assay, conditions: Mycobacteroides abscessus, ATCC19977; 7H9 broth, drug alone; read-out: Minimum inhibitory concentration, 7H9 broth
row,Compound,MIC
1,"NC(=O)[C@@H]1CC[C@@H]2CN1C(=O)N2OS(=O)(=O)O [Avibactam, avibactam]",> 256 µg/mL
2,"C[C@]1(Cn2ccnn2)[C@H](C(=O)O)N2C(=O)C[C@H]2S1(=O)=O [Tazobactam, tazobactam]",> 64 µg/mL
3,"C[C@@H](O)[C@H]1C(=O)N2C(C(=O)O)=C(S[C@@H]3CN[C@H](C(=O)N(C)C)C3)[C@H](C)[C@H]12 [Meropenem, meropenem]",8 to 16 µg/mL
4,"C[C@@H](O)[C@H]1C(=O)N2C(C(=O)O)=C(SCCN=CN)C[C@H]12 [Imipenem, imipenem]",4 to 8 µg/mL

# Same assay, conditions: Mycobacteroides abscessus, ATCC19977; carbapenem alone, single values given; read-out: MIC of carbapenems against the drug sensitive control strain
row,Compound,MIC
1,"C[C@@H](O)[C@H]1C(=O)N2C(C(=O)O)=C(S[C@@H]3CN[C@H](C(=O)N(C)C)C3)[C@H](C)[C@H]12 [Meropenem, meropenem]",16 µg/mL
2,"C[C@@H](O)[C@H]1C(=O)N2C(C(=O)O)=C(SCCN=CN)C[C@H]12 [Imipenem, imipenem]",8 µg/mL

# Same assay, conditions: Mycobacteroides abscessus, ATCC19977; cation-adjusted Mueller-Hinton broth, drug alone; read-out: Minimum inhibitory concentration, CAMHB only
row,Compound,MIC
1,"NC(=O)[C@@H]1CC[C@@H]2CN1C(=O)N2OS(=O)(=O)O [Avibactam, avibactam]",> 256 µg/mL
2,"C[C@@H](O)[C@H]1C(=O)N2C(C(=O)O)=C(S[C@@H]3CN[C@H](C(=O)N(C)C)C3)[C@H](C)[C@H]12 [Meropenem, meropenem]",32 to 64 µg/mL
3,"C[C@@H](O)[C@H]1C(=O)N2C(C(=O)O)=C(SCCN=CN)C[C@H]12 [Imipenem, imipenem]",8 to 16 µg/mL

# Same assay, conditions: cation-adjusted Mueller-Hinton broth, avibactam at fixed 4 μg/mL
row,Compound,"Minimum inhibitory concentration, CAMHB + avibactam"
1,"C[C@@H](O)[C@H]1C(=O)N2C(C(=O)O)=C(S[C@@H]3CN[C@H](C(=O)N(C)C)C3)[C@H](C)[C@H]12 [Meropenem, meropenem]",4 to 8 µg/mL
2,"C[C@@H](O)[C@H]1C(=O)N2C(C(=O)O)=C(SCCN=CN)C[C@H]12 [Imipenem, imipenem]",4 to 8 µg/mL

# Same assay, conditions: inhibitor at 4 μg/mL
row,Compound,"Ability of the β-lactamase inhibitor to reduce MICs of carbapenems, in words"
1,"NC(=O)[C@@H]1CC[C@@H]2CN1C(=O)N2OS(=O)(=O)O [Avibactam, avibactam]",most active
2,O=C(O)[C@H]1/C(=C/CO)O[C@@H]2CC(=O)N21 [clavulanate],failed to observe significant reduction in MIC
3,"C[C@]1(Cn2ccnn2)[C@H](C(=O)O)N2C(=O)C[C@H]2S1(=O)=O [Tazobactam, tazobactam]",failed to reduce the MICs; also recorded: failed to observe significant reduction in MIC
4,"CC1(C)[C@H](C(=O)O)N2C(=O)C[C@H]2S1(=O)=O [Sulbactam, sulbactam]",failed to reduce the MICs; also recorded: failed to observe significant reduction in MIC

# Test system: M. abscessus clinical strains
# Assay: Broth microdilution MIC of carbapenems with and without avibactam, twenty eight clinical isolates
# Type: cell-based, Mycobacterium abscessus
# Conditions: twenty eight clinical strains, avibactam 4 μg/mL
# Excerpt: Twenty eight unique clinical isolates of M. abscessus were used in this study. These strains were obtained de-identified from the archive of the clinical microbiology laboratory of the Johns Hopkins University Hospital per institutional ethical guidelines. They were isolated over a 10 year period, from 2005-2015, from patients that were temporally and geographically unrelated. No two isolates are from the same patient. Those displaying a high level of resistance to antibacterials used for M. abscessus infection were selected for this study. All strains obtained prior to 2014 were identified to the M. abscessus complex level using a variety of methods including 16S rDNA sequencing in conjunction with selected biochemical testing such as sodium citrate. More recent isolates (those isolated after 2014) were identified using MALDI ToF mass spectrometry in which a Bruker MicroFlex LT (MicroFlex LT) mass spectrometer and Bruker Biotyper software and existing database (version 2.0, Bruker) were employed. Sub-speciation within the M. abscessus complex, which helps to distinguish between M. abscessus sensu stricto, M. massiliense, and M. bolletii, was not done as this is not per the current standard of care at the Johns Hopkins Clinical Mycobacteriology Laboratory. Distinguishing between M. abscessus sensu stricto and M. massiliense is most often performed to guide therapy since M. massiliense is known to have a non-funtional erm gene and is therefore susceptible to macrolides. However, due to the high number of macrolide resistant M. abscessus complex isolates recovered at Johns Hopkins, most patient isolates are subjected to drug susceptibility testing, making speciation within the complex of lesser importance. Thus, the proportion of each subspecies within the M. abscessus complex for the Johns Hopkins strain collection is not known. M. abscessus ATCC 19977 was included as a reference drug-sensitive strain.
# as §1
row,Compound,Average reduction in MICs of the carbapenems in combination with avibactam
1,"C[C@@H](O)[C@H]1C(=O)N2C(C(=O)O)=C(S[C@@H]3CN[C@H](C(=O)N(C)C)C3)[C@H](C)[C@H]12 [Meropenem, meropenem]",6 fold
2,"C[C@@H](O)[C@H]1C(=O)N2C(C(=O)O)=C(SCCN=CN)C[C@H]12 [Imipenem, imipenem]",2 fold
